Source: patent publication US20240115586A1, “THERAPEUTIC AGENT FOR PULMONARY FIBROSIS” (SANSHO CO. LTD., priority 2020, published 2024)

System: bleomycin-induced pulmonary fibrosis model mice
Assay: Effect on right lung wet weight, dry weight and hydroxyproline in bleomycin-induced pulmonary fibrosis model mice
Assay type: in vivo, Mouse Crl:CD1(ICR)
Settings: Day 28, mean ± S.E.M., N=9; for Dry weight of right lung: Control 0.0348 ± 0.0017, Normal 0.0236 ± 0.0007; for Wet weight of right lung: Control 0.1735 ± 0.0087, Normal 0.1224 ± 0.0029; for Hydroxyproline (right lung): Control 354.9 ± 15.1, Normal 266.9 ± 6.4
Experimental: • Japanese Pharmacopoeia: Physiological saline solution (saline solution) • (2) Test system • Mouse Crl:CD1(ICR), 45 mice, male, purchased from Charles River Japan K.K. (11 weeks old at time of purchase)
The test substance was divided into 6 mg×28 doses prior to the day of administration. Dose solution was prepared on the day of administration. To one bottle of the previously aliquoted test substance (6 mg), 6 mL of saline solution was added and mixed by inverting. The samples were heated (approximately 40° C.) and sonicated until dissolution was visually confirmed (1 mg/mL solution). The 1 mg/mL solution was divided into 0.5 mL portions, and 4.5 mL of saline solution was added. Dissolution was confirmed by inverting and mixing (0.1 mg/mL solution).
The route of administration was intraperitoneal administration.
It was administered once per day for 28 days. Administration at the time of preparation of the pulmonary fibrosis model (Day 0 to Day 4) was before administration of bleomycin.
10 mL/kg was administered intraperitoneally using a 1 mL syringe and needle (Terumo Corporation).
The bleomycin solution was administered into the tail vein of mice at a dose volume of 5 mL/kg (bleomycin dose: 15 mg/kg) once a day for 5 days. The volume of administered liquid was calculated based on the latest body weight and calculated to the nearest 0.01 mL (rounded to the third decimal place). The normal group was administered physiological saline at a volume of 5 mL/kg.
After lethal exsanguination, the right bronchial bifurcation was ligated, and only the right lung was removed. The wet weight of the excised right lung was measured. After weighing, the right lung was minced. After that, the right lung was dried in a dry heat sterilizer set at 72° C. for about 72 hours, and the dry weight of the right lung was measured. After measuring the dry weight, it was stored in an ultra-low temperature freezer (permissible range: −90 to −65° C.) until the amount of hydroxyproline was measured. The left lung was ligated and fixed after a cannula was inserted into the trachea, and a 10% phosphate-buffered formalin solution was injected through the cannula at a pressure of 15 cm H2O to expand and fix the lung tissue. Lung sampling was performed on animals from which blood collection was performed. A fixed left lung is undergoing histopathological examination.
The hydroxyproline content of the right lung cryopreserved in section (6-5) was measured. 2 mL of HCl for hydrolysis was added to the dried right lung and the sample was hydrolyzed in an autoclave at about 121° C. for 30 minutes. After that, it was neutralized with 2.5 N NaOH (pH about 6 to 7: pH test paper was used for confirmation). By measuring the tare weight in advance and measuring the weight after neutralization, the amount (g) of the sample after neutralization was calculated. The sample after neutralization was appropriately diluted with water for injection, and 2 mL of the solution was used as a sample for measurement of HYP content.
1 mL of chloramine T reagent was added to 2 mL of the HYP standard solution and the mixture was left stand at room temperature for 20 minutes. Then, 1 mL of perchloric acid reagent was added and the mixture was left stand at room temperature for 5 minutes. After adding 1 mL of p-dimethylaminobenzaldehyde reagent and heating at 60° C. for 20 minutes, the absorbance at 557 nm of the supernatant which was obtained by filtration using a filter was measured with a spectrophotometer to create a calibration curve.
For 2 mL of each sample for measurement of HYP content, the absorbance was measured in the same manner as described in Section 3.6.6.2, and the HYP content (μg/mL) was calculated from the measured values based on the calibration curve obtained in Section 3.6.6.2. Each sample for measurement of HYP content was diluted 20-fold and was measured. Single measurement was used. […]

[1] = 2ccPA 1 mg/kg intraperitoneal once per day for 28 days
[2] = 2ccPA 10 mg/kg intraperitoneal once per day for 28 days

Question: How did the “Dry weight of right lung” value [1] turn out when 2-Carbacyclic phosphatidic acid [2ccPA] was run?
Answer: 0.0327 ± 0.0021 g

Question: What about the “Wet weight of right lung” value [1] of the same substance?
Answer: 0.1599 ± 0.0113 g

Question: And the “Hydroxyproline (right lung)” value [1]?
Answer: 331.2 ± 20.0 μg/lung

Question: What about the “Dry weight of right lung” value [2] of the same substance?
Answer: 0.0303 ± 0.0011 g

Question: What about the “Wet weight of right lung” value [2] of the same substance?
Answer: 0.1458 ± 0.0044 g

Question: And the “Hydroxyproline (right lung)” value [2]?
Answer: 288.8 ± 11.1 μg/lung
